Experimental findings from patent publication US10702506B2, “Small molecule inhibitors of pendrin ion exchange and pharmaceutical compositions” (THE REGENTS OF THE UNIVERSITY OF CALIFORNIA, priority 2016, dated 2020) are described below.

One assay concerns the target T1, pendrin (Homo sapiens, UniProt O43511).
T1 sequence (O43511 1-780): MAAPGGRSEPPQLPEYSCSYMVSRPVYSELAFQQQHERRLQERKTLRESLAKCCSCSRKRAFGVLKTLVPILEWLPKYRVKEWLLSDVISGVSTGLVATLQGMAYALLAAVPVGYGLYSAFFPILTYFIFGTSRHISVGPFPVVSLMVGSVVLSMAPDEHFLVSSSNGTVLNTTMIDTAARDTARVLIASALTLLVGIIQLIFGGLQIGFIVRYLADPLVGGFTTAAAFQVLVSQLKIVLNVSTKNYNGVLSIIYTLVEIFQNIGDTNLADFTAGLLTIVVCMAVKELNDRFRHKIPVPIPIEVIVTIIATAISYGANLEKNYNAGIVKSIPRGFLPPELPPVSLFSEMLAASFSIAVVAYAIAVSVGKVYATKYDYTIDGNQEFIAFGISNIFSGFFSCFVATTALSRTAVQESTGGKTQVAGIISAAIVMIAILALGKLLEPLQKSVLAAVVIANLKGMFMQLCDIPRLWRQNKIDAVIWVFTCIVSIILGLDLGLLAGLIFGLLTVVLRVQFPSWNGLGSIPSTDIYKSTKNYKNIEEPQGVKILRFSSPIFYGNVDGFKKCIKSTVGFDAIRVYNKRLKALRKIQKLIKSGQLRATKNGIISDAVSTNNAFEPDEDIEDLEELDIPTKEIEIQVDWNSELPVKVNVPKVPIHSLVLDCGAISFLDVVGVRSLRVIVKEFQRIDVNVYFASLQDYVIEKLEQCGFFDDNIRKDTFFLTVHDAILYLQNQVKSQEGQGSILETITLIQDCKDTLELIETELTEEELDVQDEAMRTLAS
The assay can be described thus: YFP (EYFP-HIF) fluorescence quenching assay of pendrin-mediated Cl− exchange (SCN−, I−, NO3−) in FRT cells; high-throughput screen. The assay is classed as cell-based. Details: expressed in transfected cells. Particulars: FRT, 25 μM; read-out: Inh. (%), percentage inhibition of human pendrin. How it is done: Fischer rat thyroid (FRT) cells were cultured in Kaign's modified Ham's F12 medium supplemented with 10% FBS, 2 mM L-glutamine, 100 U/ml penicillin, […], […] myo-inositol and […] ascorbic acid. For high-throughput screening, FRT cells were stably transfected with EYFP-H148Q/I152L/F46L (EYFP-HIF; in pcDNA3.1/Hygro (+)), isolated using 0.25 mg/ml hygromycin B, and then transfected with pcDNA3.1 (+) encoding human pendrin with clonal cell lines selected using 0.5 mg/ml G418.
High-throughput screening was performed using a semi-automated screening platform (Beckman, Fullerton, Calif.) configured as described. FRT cells expressing human pendrin and EYFP-HIF were plated in 96-well black-walled, clear-bottom tissue culture plates (Corning, Corning, N.Y.) at a density of 20,000 cells/well, and cultured to confluence over 48 h. For screening, plates were washed twice with PBS (in mM: 137 NaCl, 2.7 KCl, 1.1 KH2PO4, 8.1 Na2HPO4, 0.9 CaCl2), 0.5 MgCl2) prior to addition of 100 μl PBS containing test compounds. Screening was done with ˜36,000 compounds from ChemDiv (San Diego, Calif.), TimTec (Newark, Del.), and Asinex (Winston-Salem, N.C.). After 10 min incubation with test compound, plates were transferred to a Tecan Infinite M1000 plate reader (Tecan, Morrisville, N.C.) for fluorescence assay of pendrin activity. The assay duration was 10 s with initial fluorescence intensity recorded for 2 s prior to addition of 100 μl of NaSCN-substituted PBS (137 mM NaCl replaced with NaSCN). All assay plates contained negative controls (DMSO). In some experiments Cl^− exchange for I^− or NO3^− was measured similarly using NaI and NaNO3-substituted PBS. Control experiments to measure basal ion transport rates were done in FRT cells expressing EYFP-HIF without pendrin.
FRT cells were chosen for screening due to their low intrinsic permeability to anions that are transported by pendrin. As depicted in FIGS. 1A and 2A, pendrin activity was assayed from the kinetics of the halide-sensitive fluorescent protein EYFP-HIF in response to addition of a SCN^−-containing solution to drive pendrin-mediated Cl^−/SCN^−. Pendrin inhibition reduces the rate of EYFP-HIF quenching. PDSinh-A01 land PDSinh-C01 decreased pendrin-mediated Cl^−/SCN^− and Cl^−/I^− exchange in a concentration-dependent manner, as measured by YFP fluorescence quenching. […] Because the only previously-described pendrin inhibitor is the weakly active compound niflumic acid, no positive control was included in the screening plates.
As for `CSc1ccc(NC(=O)N2CCc3c(c(COc4ccccc4)nn3C)C2)cc1`, the inhibition at 25 µM worked out at 77%.

Turning to `Cn1nc(COc2ccccc2)c2c1CCN(C(=O)Nc1ccc(Cl)cc1)C2`, the inhibition at 25 µM amounted to 72%.

Consider `COc1ccc(NC(=O)N2CCc3c(c(COc4ccccc4)nn3C)C2)cc1F`, for which the inhibition at 25 µM stood at 69%.

Turning to `Cn1nc(COc2ccc(F)cc2)c2c1CCN(C(=O)Nc1ccc(Cl)cc1)C2`, the inhibition at 25 µM was determined as 66%.

As for `Cc1ccc(NC(=O)N2CCc3c(c(COc4ccccc4)nn3C)C2)cc1C`, the inhibition at 25 µM is 64%.

As to `Cc1ccc(NC(=O)N2CCc3c(c(COc4ccccc4)nn3C)C2)cc1`, the inhibition at 25 µM was 61%.

For the compound `Cc1ccc(NC(=O)N2CCc3c(c(COc4ccc(F)cc4)nn3C)C2)cc1Cl`, the inhibition at 25 µM is 61%.

As for `Cc1ccc(NC(=O)N2CCc3c(c(COc4ccc(F)cc4)nn3C)C2)cc1C`, the inhibition at 25 µM came out at 58%.

For `Cn1nc(COc2cccc(F)c2)c2c1CCN(C(=O)Nc1cccc(Cl)c1)C2`, the inhibition at 25 µM amounted to 60%.

Turning to `Cn1nc(COc2ccc(F)cc2)c2c1CCN(C(=O)Nc1cccc(C(F)(F)F)c1)C2`, the inhibition at 25 µM turned out to be 57%.

As to `CCc1ccc(NC(=O)N2CCc3c(c(COc4ccccc4)nn3C)C2)cc1`, the inhibition at 25 µM was found to be 54%.

`Cn1nc(COc2ccc(F)cc2)c2c1CCN(C(=O)Nc1ccc(F)c(Cl)c1)C2`: the inhibition at 25 µM was 54%.

In the case of `COc1ccc(NC(=O)N2CCc3c(c(COc4ccc(F)cc4)nn3C)C2)cc1F`, the inhibition at 25 µM is 53%.

In the case of `CSc1cccc(NC(=O)N2CCc3c(c(COc4ccccc4)nn3C)C2)c1`, the inhibition at 25 µM came to 45%.

Take `Cc1ccc(NC(=O)N2CCc3c(c(COCc4cccc(F)c4)nn3C)C2)cc1Cl`: the inhibition at 25 µM came to 49%.

In the case of `Cc1ccc(NC(=O)N2CCc3c(c(COCc4ccc(F)cc4Cl)nn3C)C2)cc1C`, the inhibition at 25 µM was found to be 48%.

As to `CCc1ccc(NC(=O)N2CCc3c(c(COCc4ccc(F)cc4Cl)nn3C)C2)cc1`, the inhibition at 25 µM was 49%.

As to `Cc1ccc(NC(=O)N2CCc3c(c(COCc4ccc(Cl)cc4)nn3C)C2)cc1C`, the inhibition at 25 µM was 49%.

With `Cc1cc(-c2cc(S(=O)(=O)NC3CCCc4ccccc43)c(C)s2)[nH]n1` (centres unmarked), the inhibition at 25 µM came out at 53%.

Another assay concerns the target T2, pendrin (Mus musculus, UniProt Q9R155).
T2 sequence (Q9R155 1-780): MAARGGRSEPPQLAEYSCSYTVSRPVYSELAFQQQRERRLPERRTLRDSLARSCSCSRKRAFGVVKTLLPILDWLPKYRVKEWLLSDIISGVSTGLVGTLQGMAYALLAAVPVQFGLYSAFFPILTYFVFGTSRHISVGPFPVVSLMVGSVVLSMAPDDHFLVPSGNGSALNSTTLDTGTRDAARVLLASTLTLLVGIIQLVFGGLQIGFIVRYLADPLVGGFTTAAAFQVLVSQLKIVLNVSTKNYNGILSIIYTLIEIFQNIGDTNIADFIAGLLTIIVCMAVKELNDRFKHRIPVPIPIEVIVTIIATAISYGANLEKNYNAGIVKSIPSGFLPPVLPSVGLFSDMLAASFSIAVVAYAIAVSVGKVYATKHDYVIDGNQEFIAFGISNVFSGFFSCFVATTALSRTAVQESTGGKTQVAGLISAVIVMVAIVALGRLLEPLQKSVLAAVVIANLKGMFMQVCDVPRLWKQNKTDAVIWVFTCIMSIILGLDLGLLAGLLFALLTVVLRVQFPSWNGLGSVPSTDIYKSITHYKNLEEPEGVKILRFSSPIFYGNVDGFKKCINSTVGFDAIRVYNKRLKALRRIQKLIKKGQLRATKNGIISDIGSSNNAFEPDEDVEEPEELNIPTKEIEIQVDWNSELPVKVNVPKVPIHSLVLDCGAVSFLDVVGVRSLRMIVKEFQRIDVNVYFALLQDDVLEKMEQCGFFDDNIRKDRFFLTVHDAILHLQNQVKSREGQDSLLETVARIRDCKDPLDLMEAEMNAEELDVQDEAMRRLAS
The assay can be described thus: In vitro measurement of furosemide effect on pendrin activity.
Settings: not given
For the compound `NS(=O)(=O)c1cc(C(=O)O)c(NCc2ccco2)cc1Cl` [furosemide], the “effect on pendrin activity” value is “no effect”.
